Experimental data from PubChem BioAssay AID2060615 (Molecular Pharmacology Branch, DTP, NCI, 2025).
pIC50: −log10 of the molar value. “And” between values parts separate entries of the source, which are not always exact repeats. Equal entries are not always repeated.

System: 496974-208-R-J2-PDC complex spheroids, growth % test/control
Test: Anticancer human tumor 496974-208-R-J2-PDC patient-derived pancreatic carcinoma cell line growth inhibition [CLK]
Settings: for viability, T/C: stronger effect = lower value
Summary of the method: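 Multi-cell-type spheroids combined patient-derived tumor cells with HUVEC endothelial cells and human mesenchymal stem cells. Paired agents were dosed in half-log steps down from about clinical Cmax, or from 10 microM where Cmax was unknown.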

[1] = curve of first compound, second compound 0.0316 µM
[2] = curve of first compound, second compound 0.1 µM
[3] = curve of first compound, second compound 0.316 µM
[4] = curve of first compound, second compound 1 µM
[5] = curve of first compound, second compound 3.16 µM
[6] = curve of first compound, second compound 10 µM
[7] = second compound 0.0316 µM, first compound 0.0316 µM
[8] = second compound 0.0316 µM, first compound 0.1 µM
[9] = second compound 0.0316 µM, first compound 0.316 µM
[10] = second compound 0.0316 µM, first compound 1 µM
[11] = second compound 0.1 µM, first compound 0.0316 µM
[12] = second compound 0.1 µM, first compound 0.1 µM
[13] = second compound 0.1 µM, first compound 0.316 µM
[14] = second compound 0.1 µM, first compound 1 µM
[15] = second compound 0.316 µM, first compound 0.0316 µM
[16] = second compound 0.316 µM, first compound 0.1 µM
[17] = second compound 0.316 µM, first compound 0.316 µM
[18] = second compound 0.316 µM, first compound 1 µM
[19] = second compound 1 µM, first compound 0.0316 µM
[20] = second compound 1 µM, first compound 0.1 µM
[21] = second compound 1 µM, first compound 0.316 µM
[22] = second compound 1 µM, first compound 1 µM
[23] = second compound 3.16 µM, first compound 0.0316 µM
[24] = second compound 3.16 µM, first compound 0.1 µM
[25] = second compound 3.16 µM, first compound 0.316 µM
[26] = second compound 3.16 µM, first compound 1 µM
[27] = second compound 10 µM, first compound 0.0316 µM
[28] = second compound 10 µM, first compound 0.1 µM
[29] = second compound 10 µM, first compound 0.316 µM
[30] = second compound 10 µM, first compound 1 µM
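Note: spheroids exposed to the drugs for 7 days before readout.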
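Throughout, for viability, T/C: 100% = DMSO vehicle control wells.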

With `CC(CO)NC(=O)c1cc(-c2ccc(Cl)cc2)nn(-c2cnn(C)c2)c1=O` (stereo not drawn) the viability, T/C (compound 0.0316 µM) was 106% and 99.5%, the viability, T/C (compound 0.1 µM) was 105% and 97.1% and the viability, T/C (compound 0.316 µM) was 96.2% and 100%. The viability, T/C (compound 1 µM) was 85.5% and 96.2%, the viability, T/C (compound 3.16 µM) was 91.6% and 91.4% and the viability, T/C (compound 10 µM) was 42.6% and 52.9%. The pIC50 (curve of compound) was 5.08 and < 5.00.
`COc1c(OCCCN2CCOCC2)ccc2c3n(c(=NC(=O)c4cnc(N)nc4)nc12)CCN3` + CN1CCN(c2cc(C(=O)Nc3cc4cc(-c5cnn(C)c5)ccc4cn3)ccn2)CC1 was tested, and the pIC50 [1] was 7.80, the pIC50 [2] was 7.88 and the pIC50 [3] was > 8.50. The pIC50 [4] was > 8.50, the pIC50 [5] was > 8.50 and the pIC50 [6] was > 8.50. For the same compound, the viability, T/C (second compound 0.0316 µM, first compound 0.00316 µM) was 84.8%, the viability, T/C (second compound 0.0316 µM, first compound 0.01 µM) was 61.2% and the viability, T/C [7] was 33.2%. The viability, T/C [8] was 14.5%, the viability, T/C [9] was 7% and the viability, T/C [10] was 4.1%. For the same compound, the viability, T/C (second compound 0.1 µM, first compound 0.00316 µM) was 65.5%, the viability, T/C (second compound 0.1 µM, first compound 0.01 µM) was 58.2% and the viability, T/C [11] was 27.1%. The viability, T/C [12] was 11.5%, the viability, T/C [13] was 8.48% and the viability, T/C [14] was 3.16%. For the same compound, the viability, T/C (second compound 0.316 µM, first compound 0.00316 µM) was 5.23%, the viability, T/C (second compound 0.316 µM, first compound 0.01 µM) was 3.99% and the viability, T/C [15] was 2.13%. For the same compound, the viability, T/C [16] was 1.22%, the viability, T/C [17] was 0.53% and the viability, T/C [18] was 0.56%. It also gave a viability, T/C (second compound 1 µM, first compound 0.00316 µM) of 0.41%, a viability, T/C (second compound 1 µM, first compound 0.01 µM) of 0.62% and a viability, T/C [19] of 1.84%. It also gave a viability, T/C [20] of 0.29%, a viability, T/C [21] of 0.49% and a viability, T/C [22] of 1.95%. For the same compound, the viability, T/C (second compound 3.16 µM, first compound 0.00316 µM) was 0.35%, the viability, T/C (second compound 3.16 µM, first compound 0.01 µM) was 1.42% and the viability, T/C [23] was 0.35%. It also gave a viability, T/C [24] of 0.45%, a viability, T/C [25] of 1.33% and a viability, T/C [26] of 0.46%. For the same compound, the viability, T/C (second compound 10 µM, first compound 0.00316 µM) was 0.26%, the viability, T/C (second compound 10 µM, first compound 0.01 µM) was 0.83% and the viability, T/C [27] was 0.25%. It also gave a viability, T/C [28] of 0.19%, a viability, T/C [29] of 0.4% and a viability, T/C [30] of 1.34%.
With `O=C(c1cc(Cc2n[nH]c(=O)c3ccccc23)ccc1F)N1CCN(C(=O)C2CC2)CC1` the viability, T/C (compound 0.0316 µM) was 99.1%, the viability, T/C (compound 0.1 µM) was 85.5% and the viability, T/C (compound 0.316 µM) was 94.7%. For the same compound, the viability, T/C (compound 1 µM) was 98.4%, the viability, T/C (compound 3.16 µM) was 95.2% and the viability, T/C (compound 10 µM) was 86.7%. The pIC50 (curve of compound) was < 5.00.
With `CCCS(=O)(=O)Nc1ccc(F)c(C(=O)c2c[nH]c3ncc(-c4ccc(Cl)cc4)cc23)c1F` + CNC(=O)c1ccc(Nc2nc(OC3CCCC3)c3c(-c4ccc5nc(C)oc5c4)c[nH]c3n2)c(OC)c1 the pIC50 [1] was 5.19, the pIC50 [2] was 5.20 and the pIC50 [3] was < 5.00. For the same compound, the pIC50 [4] was 5.59, the pIC50 [5] was 7.17 and the pIC50 [6] was > 7.50. It also gave a viability, T/C [7] of 94.7%, a viability, T/C [8] of 73.7% and a viability, T/C [9] of 115%. The viability, T/C [10] was 100%, the viability, T/C (second compound 0.0316 µM, first compound 3.16 µM) was 91% and the viability, T/C (second compound 0.0316 µM, first compound 10 µM) was 23.6%. The viability, T/C [11] was 71.5%, the viability, T/C [12] was 47.6% and the viability, T/C [13] was 78.6%. For the same compound, the viability, T/C [14] was 86%, the viability, T/C (second compound 0.1 µM, first compound 3.16 µM) was 78.2% and the viability, T/C (second compound 0.1 µM, first compound 10 µM) was 35.6%. The viability, T/C [15] was 70.7%, the viability, T/C [16] was 45.4% and the viability, T/C [17] was 76.3%. For the same compound, the viability, T/C [18] was 71.2%, the viability, T/C (second compound 0.316 µM, first compound 3.16 µM) was 78.2% and the viability, T/C (second compound 0.316 µM, first compound 10 µM) was 29.6%. For the same compound, the viability, T/C [19] was 51.2%, the viability, T/C [20] was 44.1% and the viability, T/C [21] was 64.5%. For the same compound, the viability, T/C [22] was 69.5%, the viability, T/C (second compound 1 µM, first compound 3.16 µM) was 66.2% and the viability, T/C (second compound 1 µM, first compound 10 µM) was 22.4%. It also gave a viability, T/C [23] of 52%, a viability, T/C [24] of 26% and a viability, T/C [25] of 61.9%. For the same compound, the viability, T/C [26] was 63.3%, the viability, T/C (second compound 3.16 µM, first compound 3.16 µM) was 53.1% and the viability, T/C (second compound 3.16 µM, first compound 10 µM) was 19.8%. The viability, T/C [27] was 50.7%, the viability, T/C [28] was 30.5% and the viability, T/C [29] was 58.6%. The viability, T/C [30] was 61.7%, the viability, T/C (second compound 10 µM, first compound 3.16 µM) was 64% and the viability, T/C (second compound 10 µM, first compound 10 µM) was 27.2%.
